Assays:
[1] = Foam height test; type: physicochemical; conditions: for foam height, 30 sec / foam height, 1 min / foam height, 2 min / foam height, Initial Reading: 0.5 grams in 49.5 ml DI water; for foam height, 30 sec / foam height, 1 min / foam height, 2 min: 100 ml graduated cylinder; for foam height, Initial Reading: read in 100 ml graduated cylinder with 1 ml line increments; for Type of Foam: 0.5 grams of active in 49.5 ml DI water, blended 1 minute
Method: The testing was performed on samples containing octenidine dihydrochloride, octenidine distearate, PHMB HCl and the chloride salts benzalkonium chloride, benzethonium chloride, and cetylpyridinium chloride.
A 250 ml beaker was filed with 49.5 ml of deionized (DI) water for each sample. Then, 0.5 grams of the active was added to the beaker. Each solution was blended with a Bamix® wand homogenizer/mixer for 1 minute. The solution was then poured into a 100 ml graduated cylinder with 1 ml line increments. The height of the foam was documented at an initial, 30 second, 1 minute, and 2 minute time point.

[2] = tested on: Corynebacterium xerosis (373); assay: MIC test against skin microorganisms; type: cell-based; conditions: 48 hrs at 36° C., TSB first set, BHI second set
Method: (§1) MICs for the organisms were determined using a standard 96-well microtiter plate assay in Trypic Soy Broth (TSB). […] Bacteria were grown in Tryptic Soy Broth or Brain Heart Infusion (E. hirae) for 24 hrs and were adjusted to one million cells per milliliter in same type of broth. Following incubation (48 hrs at 36° C.), the lowest concentration of test compound inhibiting growth was recorded as the Minimum Inhibitory Concentration (MIC). The actives were serially diluted and tested at final concentrations ranging from 156.3-0.61 ppm. MIC was run for two different sets.
(§2) Bacteria were grown overnight in Tryptic Soy Brother (TSB) or Brain Heart Infusion (BHI) and were adjusted to approximately 1×10^6 colony forming units per ml (cfu/ml) and used to inoculate the wells. Final bacterial concentration in the test wells was 5×10^5 cfu/ml. For Corynebacterium spp, TSB was used for the first set and BHI for the second set. Inoculated microtiter plates were incubated at 36° C. for 48 hours.
(§3) The lowest concentration of test compound inhibiting growth was recorded as the minimum inhibitory concentration.

[3] = tested on: Corynebacterium minutissimum (23348); assay: MIC test against skin microorganisms; type: cell-based; conditions: 48 hrs at 36° C., TSB first set, BHI second set
Method: as §1, §2, §3

[4] = tested on: Bacillus licheniformis (14580); assay: MIC test against skin microorganisms; type: cell-based; conditions: 48 hrs at 36° C., two different sets
Method: as §1, §2, §3

[5] = tested on: Staphylococcus haemolyticus (29970); assay: MIC test against skin microorganisms; type: cell-based; conditions: 48 hrs at 36° C., two different sets
Method: as §1, §2, §3

[6] = tested on: Enterococcus hirae (8043); assay: Minimum Inhibitory Concentration (MIC) test, 96-well microtiter plate; type: cell-based; conditions: 48 hrs at 36° C., visual inspection
Method: (§4) MICs for the organisms were determined using a standard 96-well microtiter plate assay in Tryptic Soy Broth (TSB) or Sabouraud Dextrose Broth (SDB). A stock solution (2500 ppm) of Octenidine distearate was prepared in methanol and stock solutions (2500 ppm) of Octenidine dihydrochloride and PHMB were prepared in absolute ethanol. […] Fungal inocula were grown up on Sabouraud Dextrose Agar plates (yeast) or Potato Dextrose Agar plates (mold) and mold spores and yeast cells were adjusted to approximately 100,000 per milliliter in Sabouraud Dextrose Broth (pH 5.6). Bacterial and fungal cultures were used to inoculate the serially diluted antimicrobials in the 96 well microplate and the plate was then incubated for 48 hrs at 36° C. The lowest concentration of test compound inhibiting growth at 48 hrs. (as determined by visual inspection) was recorded as the Minimum Inhibitory Concentration (MIC)

[7] = tested on: Enterobacter gergoviae (33028); assay: as above; type: cell-based; conditions: 48 hrs at 36° C., visual inspection
Method: as §4

[8] = tested on: Candida albicans (10231); assay: as above; type: cell-based; conditions: 48 hrs at 36° C., Sabouraud Dextrose Broth
Method: as §4

[9] = tested on: Pseudomonas aeruginosa (15442); assay: as above; type: cell-based; conditions: 48 hrs at 36° C., visual inspection
Method: as §4

[10] = tested on: Aspergillus niger (16404); assay: as above; type: cell-based; conditions: 48 hrs at 36° C., Sabouraud Dextrose Broth
Method: as §4

[11] = tested on: Gliocladium virens (9645); assay: as above; type: cell-based; conditions: 48 hrs at 36° C., Sabouraud Dextrose Broth
Method: as §4

[12] = tested on: Aureobasidium pullulans (9348); assay: as above; type: cell-based; conditions: 48 hrs at 36° C., Sabouraud Dextrose Broth
Method: as §4

[13] = tested on: Klebsiella pneumoniae (4352); assay: as above; type: cell-based; conditions: 48 hrs at 36° C., visual inspection
Method: as §4

[14] = tested on: Staphylococcus aureus (6538); assay: as above; type: cell-based; conditions: 48 hrs at 36° C., visual inspection
Method: as §4

[15] = tested on: LB penicillium sp.; assay: as above; type: cell-based; conditions: 48 hrs at 36° C., Sabouraud Dextrose Broth
Method: as §4

[16] = tested on: Bacillus subtilus (6633); assay: as above; type: cell-based; conditions: 48 hrs at 36° C., visual inspection
Method: as §4

[17] = tested on: Pseudomonas aeruginosa (9027); assay: as above; type: cell-based; conditions: 48 hrs at 36° C., visual inspection
Method: as §4

[18] = tested on: Escherichia coli (10536); assay: as above; type: cell-based; conditions: 48 hrs at 36° C., visual inspection
Method: as §4

[19] = tested on: Penicillium pinophilium (11797); assay: as above; type: cell-based; conditions: 48 hrs at 36° C., Sabouraud Dextrose Broth
Method: as §4

[20] = tested on: Paecilomyces sp.; assay: as above; type: cell-based; conditions: 48 hrs at 36° C., Sabouraud Dextrose Broth
Method: as §4

CC(C)(C)CC(C)(C)c1ccc(OCCOCC[N+](C)(C)Cc2ccccc2)cc1 [Benzethonium Chloride, benzethonium chloride]
foam height, 30 sec [1]: 107
foam height, 1 min [1]: 107
foam height, 2 min [1]: 106
foam height, Initial Reading [1]: 107
Type of Foam [1]: Tight

Polyhexamethylene biguanide stearate [PHMBS]
MIC (ppm) [2]: 9.76 ppm
MIC (ppm) [3]: 0.61-4.88 ppm
MIC (ppm) [4]: 2.44-4.88 ppm
MIC (ppm) [5]: 2.44-4.88 ppm

benzalkonium chloride
foam height, 30 sec [1]: 103
foam height, 1 min [1]: 102
foam height, 2 min [1]: 102
foam height, Initial Reading [1]: 103
Type of Foam [1]: Tight

polyhexamethylene biguanide hydrochloride [PHMB]
foam height, 30 sec [1]: 85
foam height, 1 min [1]: 80
foam height, 2 min [1]: 75
foam height, Initial Reading [1]: 87
Type of Foam [1]: Slightly loose
Minimum Inhibitory Concentration (MIC) [6]: 2.44 ppm
Minimum Inhibitory Concentration (MIC) [7]: 1.22-2.44 ppm ^
Minimum Inhibitory Concentration (MIC) [8]: 0.61 ppm
Minimum Inhibitory Concentration (MIC) [9]: 4.88 ppm
Minimum Inhibitory Concentration (MIC) [10]: 2.44 ppm
Minimum Inhibitory Concentration (MIC) [11]: 0.61 ppm
Minimum Inhibitory Concentration (MIC) [12]: 1.22 ppm
Minimum Inhibitory Concentration (MIC) [13]: 1.22-2.44 ppm ^
Minimum Inhibitory Concentration (MIC) [14]: 1.22-2.44 ppm ^
Minimum Inhibitory Concentration (MIC) [15]: 1.22 ppm
Minimum Inhibitory Concentration (MIC) [16]: 0.31-0.61 ppm ^
Minimum Inhibitory Concentration (MIC) [17]: 2.44 ppm
Minimum Inhibitory Concentration (MIC) [18]: 1.22 ppm
Minimum Inhibitory Concentration (MIC) [19]: 2.44 ppm
Minimum Inhibitory Concentration (MIC) [20]: 1250-5000 ppm

Reference: patent US9687432B2, “Antimicrobial bispyridine amine compositions and uses” (LONZA INC., priority 2012, dated 2017)
